Test [1] deals with T1, G-protein coupled receptor 35 (Homo sapiens, UniProt Q9HC97). Nature of the test: Agonist activity at GPR35 in human HT-29 cells in presence of GPR35 antagonist ML-145 by dynamic mass redistribution assay. The test is classed as functional, cell-based.
Test [2] has as its target T1, G-protein coupled receptor 35. Nature of the test: Desensitization of GPR35 in human HT-29 cells assessed as inhibition of zaprinast-induced dynamic mass redistribution pretreated for 1 hr followed by zaprinast stimulation. The test is classed as functional, cell-based.
For test [3] the target is unchanged. Briefly: Agonist activity at GPR35 in human HT-29 cells by dynamic mass redistribution assay. In kind it is functional, cell-based.
Test [4] has as its target G protein-coupled receptor GPR35 (Rattus norvegicus, UniProt Q33BM1). Nature of the test: Agonist activity at recombinant rat N-terminal FLAG/eYFP-fused GPR35 expressed in HEK293 cells assessed as induction of beta-arrestin recruitment by BRET assay. The test is classed as functional, cell-based. Background: Activated receptors often draw arrestin, which recruitment assays turn into a signal.

Test [5] deals with T1, G-protein coupled receptor 35. Briefly: Agonist activity at GPR35 in human HT-29 cells assessed as increase in ERK1/2 phosphorylation at 0.1 to 1 uM pretreated for 10 mins followed by GPR35 antagonist ML-145 addition measured after 5 mins by Western blot analysis. The test is classed as functional, cell-based. A general note: A western blot detects proteins with antibodies after separation by electrophoresis.

Test [6] has the same target. Nature of the test: Agonist activity at GPR35 in human HT-29 cells assessed as increase in ERK1/2 phosphorylation at 0.1 to 1 uM after 15 mins by Western blot analysis. The test is classed as functional, cell-based.
For test [7] the target is unchanged. Nature of the test: Agonist activity at recombinant human N-terminal FLAG/eYFP-fused GPR35a expressed in CHOK1 cells assessed as induction of beta-arrestin recruitment by path hunter assay. In kind it is cell-based.

Broadly, the IC50 is the midpoint of a concentration-inhibition curve. Broadly, the EC50 is the concentration giving half of the maximal effect.

The structures appear in SMILES notation. Calls of active or inactive are those of the source. The calls are words filed in the database; no cut-off is given here.

T1 sequence (Q9HC97 whole entry): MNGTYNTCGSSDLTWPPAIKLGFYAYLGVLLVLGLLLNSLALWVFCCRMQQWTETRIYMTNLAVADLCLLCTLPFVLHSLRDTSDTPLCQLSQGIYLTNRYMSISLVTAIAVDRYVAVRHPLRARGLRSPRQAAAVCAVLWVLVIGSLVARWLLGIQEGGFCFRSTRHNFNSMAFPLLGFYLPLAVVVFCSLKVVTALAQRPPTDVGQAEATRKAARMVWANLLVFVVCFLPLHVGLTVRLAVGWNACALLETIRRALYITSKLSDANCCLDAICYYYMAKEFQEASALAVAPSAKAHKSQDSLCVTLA
Chain of G protein-coupled receptor GPR35 (Q33BM1 whole entry, the tested form may be a part): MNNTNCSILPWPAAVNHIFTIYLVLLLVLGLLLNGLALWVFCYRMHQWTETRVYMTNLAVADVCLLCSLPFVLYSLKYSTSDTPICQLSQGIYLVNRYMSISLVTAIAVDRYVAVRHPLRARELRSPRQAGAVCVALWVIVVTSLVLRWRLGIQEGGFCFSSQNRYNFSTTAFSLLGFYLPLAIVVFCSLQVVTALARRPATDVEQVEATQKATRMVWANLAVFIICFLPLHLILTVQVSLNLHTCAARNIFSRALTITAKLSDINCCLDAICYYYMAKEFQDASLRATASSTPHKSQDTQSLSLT

Take `O=C(Nc1cc(Br)ccc1-c1nnn[nH]1)c1ccc(Cl)cc1`: in test [1], the result was inactive. For the same compound, the IC50 in test [2] stood at 210 nM. In addition, the Activity result in test [3] is “Dose-dependent effect”. Moreover, the 50% effective concentration (EC50) in test [3] (read-out: EC50) is 520 nM.
As for `Cc1ccc(C(=O)Nc2cc(Br)ccc2-c2nnn[nH]2)cc1`, in test [1], the result was inactive. In test [2], the IC50 stood at 510 nM. Besides, the Activity entry in test [3] was “Dose-dependent effect”. Besides, the EC50 in test [3] (read-out: EC50) is 1330 nM.
For `COc1ccc(C(=O)Nc2cc(Br)ccc2-c2nnn[nH]2)cc1OC` the same measures were “inactive”, 260 nM, “Dose-dependent effect” and 830 nM.
Turning to `COc1ccc(C(=O)Nc2ccc(Br)cc2-c2nnn[nH]2)cc1`, the result in test [1] was inactive. Further, the concentration for half-maximal inhibition (IC50) in test [2] is 110 nM. Also, the Activity entry in test [3] was “Dose-dependent effect”. Moreover, in test [3] (read-out: EC50), the EC50 is 300 nM.
For `O=C(Nc1cc(Br)ccc1-c1nnn[nH]1)c1ccc(F)cc1`, in that order: “inactive”, 160 nM, “Dose-dependent effect” and 450 nM.
For the compound `COc1ccc(C(=O)Nc2cc(F)ccc2-c2nnn[nH]2)cc1`, the outcome in test [1] was inactive. Further, in test [2], the IC50 amounted to 82 nM. Further, in test [3], the Activity result is “Dose-dependent effect”. Also, the 50% effective concentration (EC50) in test [3] (read-out: EC50) stood at 200 nM.
`O=C(Nc1cc(Br)ccc1-c1nnn[nH]1)c1ccc(C(F)(F)F)cc1`: the outcome in test [1] was inactive. Moreover, the concentration for half-maximal inhibition (IC50) in test [2] came to 1360 nM. In test [3], the Activity entry was “Dose-dependent effect”. Besides, the EC50 in test [3] (read-out: EC50) was determined as 3650 nM.
As to `COc1ccccc1C(=O)Nc1cc(Br)ccc1-c1nnn[nH]1`, the result in test [1] was inactive. In test [2], the half-maximal inhibitory concentration (IC50) stood at 400 nM. In addition, the Activity entry in test [3] is “Dose-dependent effect”. For the same compound, in test [3] (read-out: EC50), the EC50 amounted to 860 nM.
As for `COc1ccc(C(=O)Nc2ccccc2C#N)cc1`, in test [1], the outcome was inactive. The EC50 result in test [3] (ht-29) is “Not Active”.
With `COc1ccc(C(=O)Nc2ccccc2-c2nn[nH]n2)cc1`, in test [1], the result was inactive. In addition, the half-maximal inhibitory concentration (IC50) in test [2] was determined as 280 nM. Besides, in test [3], the Activity result was “Dose-dependent effect”. Moreover, in test [3] (read-out: EC50), the EC50 stood at 650 nM.
With `Cc1cccn2c(=O)c(-c3nnn[nH]3)cnc12` [PEMIROLAST], in test [4], the half-maximal effective concentration (EC50) was found to be 95 nM.
Take `O=C(Nc1cc(Br)ccc1-c1nnn[nH]1)c1cccc(C(F)(F)F)c1`: in test [1], the outcome was inactive. For the same compound, in test [2], the IC50 was found to be 1280 nM. The Activity entry in test [3] is “Dose-dependent effect”. In test [3] (read-out: EC50), the concentration for a half-maximal effect (EC50) came out at 4600 nM.
For `O=C(Nc1cc(Br)ccc1-c1nnn[nH]1)c1ccccc1F`, in that order: “inactive”, 170 nM, “Dose-dependent effect” and 350 nM.
`O=C(Nc1cc(Br)ccc1-c1nnn[nH]1)c1cccc(Cl)c1`: in test [1], the result was inactive. Further, the half-maximal inhibitory concentration (IC50) in test [2] was 480 nM. For the same compound, in test [3], the Activity entry was “Dose-dependent effect”. For the same compound, in test [3] (read-out: EC50), the EC50 was 2180 nM.
As to `O=C(Nc1cc(Br)ccc1-c1nnn[nH]1)c1ccc(F)cc1F`, the outcome in test [5] and in test [1] was inactive. For the same compound, the outcome in test [6] was Active. The IC50 in test [2] is 60 nM. For the same compound, the Activity entry in test [3] is “Dose-dependent effect”. The EC50 in test [3] (read-out: EC50) came to 130 nM.
On to `COc1cccc(C(=O)Nc2cc(Br)ccc2-c2nnn[nH]2)c1`, for which, in test [1], the outcome was inactive. In test [2], the IC50 came to 810 nM. In addition, the Activity entry in test [3] was “Dose-dependent effect”. In addition, in test [3] (read-out: EC50), the concentration giving a half-maximal response (EC50) stood at 1940 nM.
As to `COc1ccc(C(=O)Nc2ccc(-c3nnn[nH]3)cc2)cc1`, the result in test [1] was inactive. Besides, the IC50 in test [2] was found to be 8360 nM. For the same compound, in test [3], the Activity entry was “Dose-dependent effect”. Moreover, the 50% effective concentration (EC50) in test [3] (read-out: EC50) amounted to 17600 nM.
For `COc1ccc(C(=O)Nc2cc(Br)ccc2-c2nnn[nH]2)cc1`, the result in test [5] and in test [1] was inactive. For the same compound, the outcome in test [6] was Active. Further, the half-maximal inhibitory concentration (IC50) in test [2] was 26 nM. In addition, in test [3], the Activity result was “Dose-dependent effect”. The half-maximal effective concentration (EC50) in test [3] (read-out: EC50) turned out to be 59 nM.
Regarding `O=C(Nc1cc(Br)ccc1-c1nnn[nH]1)c1cccs1`, the result in test [1] was inactive. Further, the IC50 in test [2] was found to be 260 nM. For the same compound, the Activity result in test [3] is “Dose-dependent effect”. Also, the EC50 in test [3] (read-out: EC50) is 510 nM.
For `O=C(Nc1cc(Br)ccc1-c1nnn[nH]1)c1ccc(Cl)cc1Cl`, in that order: “inactive”, 110 nM, “Dose-dependent effect” and 310 nM.
For `O=C1c2ccccc2S(=O)(=O)c2cc(-c3nnn[nH]3)ccc21` [DOXANTRAZOLE], in test [7], the half-maximal effective concentration (EC50) came out at 3400 nM.
For `O=C(Nc1cc(Br)ccc1-c1nnn[nH]1)c1ccccc1`, the outcome in test [1] was inactive. Also, the 50% inhibitory concentration (IC50) in test [2] was 300 nM. In addition, in test [3], the Activity result was “Dose-dependent effect”. The concentration giving a half-maximal response (EC50) in test [3] (read-out: EC50) worked out at 870 nM.
Regarding `O=C(Nc1cc(Br)ccc1-c1nnn[nH]1)c1cccc(F)c1`, in test [1], the result was inactive. Further, in test [2], the 50% inhibitory concentration (IC50) worked out at 210 nM. The Activity result in test [3] is “Dose-dependent effect”. Moreover, the half-maximal effective concentration (EC50) in test [3] (read-out: EC50) amounted to 610 nM.
As for `Nc1ccc(Br)cc1-c1nnn[nH]1`, in test [1], the result was inactive. Moreover, the IC50 in test [2] was 75300 nM. In addition, the Activity result in test [3] is “Dose-dependent effect”. Besides, in test [3] (read-out: EC50), the EC50 turned out to be 44100 nM.
Consider `Cc1ccccc1C(=O)Nc1cc(Br)ccc1-c1nnn[nH]1`, for which, in test [1], the outcome was inactive. In addition, the IC50 in test [2] is 810 nM. Further, the Activity result in test [3] was “Dose-dependent effect”. The EC50 in test [3] (read-out: EC50) came to 2050 nM.
As to `O=C(Nc1cc(Br)ccc1-c1nnn[nH]1)C1CCCCC1`, the outcome in test [1] was inactive. Besides, the IC50 in test [2] was determined as 200 nM. In test [3], the Activity result is “Dose-dependent effect”. For the same compound, the EC50 in test [3] (read-out: EC50) came to 440 nM.
For the compound `O=C(Nc1cc(Br)ccc1-c1nnn[nH]1)c1ccccc1Cl`, in test [1], the outcome was inactive. In addition, the IC50 in test [2] amounted to 410 nM. In addition, in test [3], the Activity result was “Dose-dependent effect”. For the same compound, in test [3] (read-out: EC50), the EC50 worked out at 870 nM.
On to `O=C(Nc1cc(Br)ccc1-c1nnn[nH]1)c1ccco1`, for which the outcome in test [1] was inactive. For the same compound, the IC50 in test [2] amounted to 440 nM. Besides, the Activity result in test [3] was “Dose-dependent effect”. In addition, in test [3] (read-out: EC50), the half-maximal effective concentration (EC50) is 1060 nM.
For `COc1ccc(C(=O)Nc2cc(Br)ccc2-c2nnn[nH]2)c(F)c1`, in that order: “inactive”, 14 nM, “Dose-dependent effect” and 41 nM.
For `CCC(=O)Nc1cc(Br)ccc1-c1nnn[nH]1`, the result in test [1] was inactive. Moreover, the IC50 in test [2] was 700 nM. In addition, in test [3], the Activity entry was “Dose-dependent effect”. In addition, the EC50 in test [3] (read-out: EC50) was 620 nM.
`Cc1cccc(C(=O)Nc2cc(Br)ccc2-c2nnn[nH]2)c1`: in test [1], the outcome was inactive. Besides, in test [2], the IC50 was 360 nM. In addition, the Activity entry in test [3] was “Dose-dependent effect”. Besides, the 50% effective concentration (EC50) in test [3] (read-out: EC50) was found to be 860 nM.
For the compound `CC(C)C(=O)Nc1cc(Br)ccc1-c1nnn[nH]1`, the outcome in test [1] was inactive. Also, in test [2], the half-maximal inhibitory concentration (IC50) stood at 280 nM. For the same compound, the Activity entry in test [3] was “Dose-dependent effect”. For the same compound, in test [3] (read-out: EC50), the 50% effective concentration (EC50) stood at 380 nM.

The record behind these values is ChEMBL document CHEMBL4145590, “SAR Studies of N-[2-(1H-Tetrazol-5-yl)phenyl]benzamide Derivatives as Potent G Protein-Coupled Receptor-35 Agonists” (ACS Med Chem Lett, 2018).
